# Data: US20260315437A1, “COMBINATION OF NAB-SIROLIMUS AND AN ESTROGEN SUPPRESOR FOR USE IN THE TREATMENT OF HORMONE-DEPENDENT CANCERS” (AADI Bioscience, Inc., priority 2023, published 2026)
# Experiments:
# mTORC1 at Ser2448 = details: cited from earlier work
# [1] = in vivo; cited from earlier work
# ABCB1/ABCG2 = details: cited from earlier work
# HSA = details: cited from earlier work
# CYP3A4 = details: role: substrate; cited from earlier work
# human plasma proteins = details: cited from earlier work
# p4EBP1 = experiment: Western blot analysis of p4EBP1 in MCF7 cells; format: cell-based; details: single agent, FIG. 3
# Description: (§1) A series of single-agent treatments of fulvestrant or nab-sirolimus and combination treatments of both fulvestrant and nab-sirolimus were separately applied to aliquots of hormone receptor positive breast cancer cell lines (either MCF7 or MDA-MB-361). The series including varying concentration of nab-sirolimus (20 nM or 80 nM) and fulvestrant (0.98 nM to 1000 nM). Following the application of the individual treatments, the cell aliquots were incubated for 5 days. Subsequently, the antiproliferative and cytotoxic effects of single agent and combination treatments were assessed using an automated trypan blue exclusion assay.
# Western blot analysis was performed to assess p4EBP1 in MCF7 cells. […] Thus, addition of nab-sirolimus to endocrine-based therapies, such as fulvestrant, may overcome mechanisms of resistance.
# pAKT = experiment: Western blot analysis of pAKT in MCF7 cells; format: cell-based; details: fulvestrant combined with nab-sirolimus, FIG. 3, effect on nab-sirolimus-induced increase
# Description: as §1
# Western blot analysis was performed to assess pAKT in MCF7 cells. […] Thus, addition of fulvestrant, to mTOR targeting agents, such as nab-sirolimus may overcome mechanisms of resistance.
compound,measurement,setting,value
COc1ccc(-c2ccc3c(N4CCOCC4)nc(N4C[C@@H](C)O[C@@H](C)C4)nc3n2)cc1CO [KU-0063794],inhibition of phosphorylation of mTORC1 at Ser2448,mTORC1 at Ser2448,inhibits the phosphorylation of mTORC1 at Ser2448 in a dose-dependent and time-dependent manner
COc1ccc(COc2cc3oc(=O)c4cc(C(C)O)ccc4c3cc2OC)cc1 (stereo not drawn) [Palomid 529],brain penetration,[1],good brain penetration
same,affinity for ABCB1/ABCG2,ABCB1/ABCG2,lacks affinity for ABCB1/ABCG2
"CO[C@H]1C[C@@H]2CC[C@@H](C)[C@@](O)(O2)C(=O)C(=O)N2CCCC[C@H]2C(=O)O[C@H]([C@H](C)C[C@@H]2CC[C@@H](O)[C@H](OC)C2)CC(=O)[C@H](C)/C=C(\C)[C@@H](O)[C@@H](OC)C(=O)[C@H](C)C[C@H](C)/C=C/C=C/C=C/1C [Sirolimus, sirolimus]",binding to HSA,HSA,shown to bind HSA
same,metabolism,CYP3A4,metabolized primarily by CYP3A4
CC(=O)O[C@@]12CO[C@@H]1C[C@H](O)[C@@]1(C)C(=O)[C@H](O)C3=C(C)[C@@H](OC(=O)[C@H](O)[C@@H](NC(=O)OC(C)(C)C)c4ccccc4)C[C@@](O)([C@@H](OC(=O)c4ccccc4)[C@H]21)C3(C)C [docetaxel],binding to human plasma proteins,human plasma proteins,shown to bind to human plasma proteins
C[C@]12CC[C@@H]3c4ccc(O)cc4C[C@@H](CCCCCCCCC[S+]([O-])CCCC(F)(F)C(F)(F)F)[C@H]3[C@@H]1CC[C@@H]2O (stereo partly drawn) [fulvestrant],p4EBP1 level,p4EBP1,increased p4EBP1 in response to fulvestrant in a dose-dependent manner
same,pAKT level in combination,pAKT,reversed by combination with fulvestrant in a dose-dependent manner
CC(C)c1cccc(C(C)C)c1O [propofol],binding to HSA,HSA,shown to bind HSA
